Measured values taken from paper PMC3188286 (Journal of Medicinal Chemistry, 2011).
One block for each compound: values may come before it.

Assays:
T. brucei TryR [1] = molecular target: T1, T. brucei TryR (Trypanosoma brucei brucei, UniProt P39051); experiment: TryR enzyme assay; assay type: biochemical, Trypanosoma brucei brucei strain S427; conditions: for fold less active than 9a against TryR: vs 9a; for improvement in TryR potency with respect to ester 1c: vs 1c IC50 9.4 μM; for ligand efficiency: from T. brucei TryR IC50
T. brucei TryR [2] = molecular target: T1, T. brucei TryR; experiment: Mode of inhibition studies; assay type: biochemical; conditions: for mode of inhibition: with respect to trypanothione disulfide
[3] = system: bloodstream form T. brucei brucei; experiment: Resazurin fluorescence-based cell viability assay, T. brucei; design: species or system Trypanosoma brucei brucei
[4] = Resazurin viability counter-screen, MRC5 cells; assay type: cell-based; conditions: human, MRC-5 cells

T1 sequence (P39051 whole entry): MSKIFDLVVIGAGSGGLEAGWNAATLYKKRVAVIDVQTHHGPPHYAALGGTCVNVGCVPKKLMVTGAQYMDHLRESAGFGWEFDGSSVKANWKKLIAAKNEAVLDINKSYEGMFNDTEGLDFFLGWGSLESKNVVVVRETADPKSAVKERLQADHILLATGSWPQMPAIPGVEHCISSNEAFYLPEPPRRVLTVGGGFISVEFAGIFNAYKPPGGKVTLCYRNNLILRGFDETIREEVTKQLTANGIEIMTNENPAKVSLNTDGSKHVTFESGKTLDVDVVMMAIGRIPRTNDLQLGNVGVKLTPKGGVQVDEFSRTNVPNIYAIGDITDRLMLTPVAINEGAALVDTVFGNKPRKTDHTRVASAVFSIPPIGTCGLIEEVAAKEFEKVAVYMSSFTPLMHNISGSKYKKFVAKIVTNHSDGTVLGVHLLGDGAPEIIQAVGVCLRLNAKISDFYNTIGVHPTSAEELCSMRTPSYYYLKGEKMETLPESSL

fold more potent against TryR than C6-phenyl analogue 16a (T. brucei TryR [1]): 10 fold
SMILES: CC1=Nc2ccc(Br)cc2C(c2ccccc2)N1CCN1CCCCC1 (stereo not shown) [15c, 6-bromo-2-methyl-4-phenyl-3-(2-(piperidin-1-yl)ethyl)-3,4-dihydroquinazoline]

mode of inhibition (T. brucei TryR [2]): mixed mode of inhibition
SMILES: CC1=Nc2ccc(Cl)cc2C(c2ccccc2)N1CCN1CCN(C(=O)CN(C)C)CC1 (stereo not shown) [13h]

fold less active than 9a against TryR (T. brucei TryR [1]): 15 fold
SMILES: COc1cccc(C2c3cc(Cl)ccc3N=C(C)N2CCN2CCCCC2)c1 (stereo not shown) [29d]

fold more potent against TryR than other C6-aryls (16a,b,e,f) (T. brucei TryR [1]): 5- to 10 fold
SMILES: CC1=Nc2ccc(-c3ccsc3)cc2C(c2ccccc2)N1CCN1CCCCC1 (stereo not shown) [16d]

improvement in TryR potency with respect to ester 1c (T. brucei TryR [1]): 10 fold
SMILES: CC1=Nc2ccc(Cl)cc2C(c2ccccc2)N1Cc1ccccc1F (stereo not shown) [6d]

ligand efficiency (T. brucei TryR [1]): > 0.3 kcal mol^–1 per non-H atom
SMILES: CCN1C(C)=Nc2ccc(Cl)cc2C1c1ccccc1 (stereo not shown) [6k]

fold less active than 9a against TryR (T. brucei TryR [1]): 15 fold
SMILES: CC1=Nc2ccc(Cl)cc2C(C2CCCCC2)N1CCN1CCCCC1 (stereo not shown) [29f]

TryR IC50 (T. brucei TryR [1]; recombinant T. brucei TryR, mean of at least two replicates): inactive
SMILES: COC(=O)CN1C(C)=Nc2ccc(Br)cc2C1c1ccccc1Cl (stereo not shown) [1d]

ligand efficiency (T. brucei TryR [1]): > 0.3 kcal mol^–1 per non-H atom
improvement in TryR potency cf. 9e (T. brucei TryR [1]; vs 9e IC50 1.0 μM): 4 fold
TryR Ki′ (T. brucei TryR [2]; mixed inhibition, enzyme–T[S]2 complex): 1.46 µM
mode of inhibition (T. brucei TryR [2]): linear mixed
SMILES: CC1=Nc2ccc(Cl)cc2C(c2ccc(C)cc2)N1CCCN(C)C (stereo not shown) [29a, 3-(6-Chloro-2-methyl-4-p-tolylquinazolin-3(4H)-yl)-N,N-dimethylpropan-1-amine]

SMILES: N=C(N)c1ccc(OCCCCCOc2ccc(C(=N)N)cc2)cc1 [Pentamidine, pentamidine, reference compound]
EC50 ([3]; Trypanosoma brucei, read-out: T. brucei EC50 (positive control)): 5 nM

improvement in TryR potency with respect to ester 1c (T. brucei TryR [1]): 11 fold
mode of inhibition (T. brucei TryR [2]): mixed mode of inhibition
SMILES: CC1=Nc2ccc(Cl)cc2C(c2ccccc2)N1CCNC(=O)c1ccco1 (stereo not shown) [11e]

SMILES: CC1=Nc2ccc(-c3ccccc3)cc2C(c2ccccc2)N1CCN1CCCCC1 (racemic) [16a, (R/S)-2-Methyl-4,6-diphenyl-3-(2-(piperidin-1-yl)ethyl)-3,4-dihydroquinazoline]
fold more potent against T. brucei cells than against TryR [3]: 10 fold

ligand efficiency (T. brucei TryR [1]): 0.31 kcal mol^–1 per non-H atom
improvement in TryR potency with respect to ester 1c (T. brucei TryR [1]): 10 fold
SMILES: CC1=Nc2ccc(Cl)cc2C(c2ccccc2)N1CCN1CCN(C)CC1 (stereo not shown) [9c]

difference in activity between T. cruzi and T. brucei TryR (T. brucei TryR [1]): < 3 fold
Ki (T. brucei TryR [2]): 920 ± 60 nM
mode of inhibition (T. brucei TryR [2]): linear competitive inhibitor
SMILES: COC(=O)CN1C(C)=Nc2ccc(Br)cc2C1c1ccccc1 (stereo not shown) [1a]
reduction in potency between biochemical (TryR IC50) and cell assay (T. brucei EC50) [3]: > 5 fold
EC50 [4]: > 50 µM

SMILES: CC1=Nc2ccc(Cl)cc2C(c2ccccc2)N1CCN1CCCCC1 (racemic) [9a, (R/S)-6-Chloro-2-methyl-4-phenyl-3-(2-(piperidin-1-yl)ethyl)-3,4-dihydroquinazoline]
selectivity (MRC5 EC50/T. brucei EC50) ([3]; ratio, fold): 11

SMILES: CC1=Nc2ccccc2C(c2ccccc2)N1CCN1CCCCC1 (stereo not shown) [15b]
fold less potent against T. brucei than C6-halogen analogues 9a, 15c, 15d [3]: ~10 fold

improvement in TryR potency with respect to ester 1c (T. brucei TryR [1]): 10 fold
SMILES: CC1=Nc2ccc(Cl)cc2C(c2ccccc2)N1Cc1cccc(N(C)C)c1 (stereo not shown) [6g]

ligand efficiency (T. brucei TryR [1]): 0.27 kcal mol^–1 per non-H atom
improvement in TryR potency with respect to ester 1c (T. brucei TryR [1]): 22 fold
SMILES: CC1=Nc2ccc(Cl)cc2C(c2ccccc2)N1CCN1CCN(C(=O)c2ccco2)CC1 (stereo not shown) [13e]

fold more potent against TryR than other C6-aryls (16a,b,e,f) (T. brucei TryR [1]): 5- to 10 fold
SMILES: CC1=Nc2ccc(-c3ccco3)cc2C(c2ccccc2)N1CCN1CCCCC1 (stereo not shown) [16c]

improvement in TryR potency with respect to ester 1c (T. brucei TryR [1]): 10 fold
SMILES: CC1=Nc2ccc(Cl)cc2C(c2ccccc2)N1Cc1ccccc1 (racemic) [6a, (R/S)-3-Benzyl-6-chloro-2-methyl-4-phenyl-3,4-dihydroquinazoline]

difference in activity between T. cruzi and T. brucei TryR (T. brucei TryR [1]): < 3 fold
SMILES: COC(=O)CN1C(C)=Nc2ccc(C)cc2C1c1ccccc1 (stereo not shown) [1b]
